Results: the supplement of paper PMC10307832

Legend:
Experiment in all cases: relative viability (nuclei count vs DMSO), 5 days (fraction); higher = more cells survive
[1] = compound: CC1=CC(=CC=C1)NC2=NC(=CS2)C3=CC=NC=C3 + CC1(C)CCC(c2ccc(Cl)cc2)=C(CN2CCN(c3ccc(C(=O)NS(=O)(=O)c4ccc(N[C@H](CCN5CCOCC5)CSc5ccccc5)c(S(=O)(=O)C(F)(F)F)c4)cc3)CC2)C1 [Navitoclax] (partner 0.5 µM)
Outline: (§1)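 Relative viability is defined as nuclei in treated wells over nuclei in vehicle wells. Duplicate plates were run and medians reported. Lung cancer cell lines in 1536-well plates were dosed by pin tool one day after seeding, with one drug or with a fixed anchor-drug dose plus five library-drug doses (not always all listed) in √10 steps, and nuclei were counted after 5 days.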

[2] = compound: CC1=CC(=CC=C1)NC2=NC(=CS2)C3=CC=NC=C3 + CS(=O)(=O)CCNCc1ccc(-c2ccc3ncnc(Nc4ccc(OCc5cccc(F)c5)c(Cl)c4)c3c2)o1 [Lapatinib] (partner 2 µM)
Outline: as §1

[3] = compound: Cc1ccc(NC(=O)c2ccc(CN3CCN(C)CC3)cc2)cc1Nc1nc(-c2cccnc2)cs1 [Masitinib] + CCNC(=O)c1noc(-c2cc(C(C)C)c(O)cc2O)c1-c1ccc(CN2CCOCC2)cc1 [Luminespib] (partner 0.01 µM)
Outline: as §1

[4] = compound: Cc1ccc(NC(=O)c2ccc(CN3CCN(C)CC3)cc2)cc1Nc1nc(-c2cccnc2)cs1 [Masitinib] + Cc1nc(Nc2ncc(C(=O)Nc3c(C)cccc3Cl)s2)cc(N2CCN(CCO)CC2)n1 [Dasatinib] (partner 0.075 µM)
Outline: as §1

| Cell Line | relative viability ([1]; first compound 0.08 µM) | relative viability ([1]; first compound 0.253 µM) | relative viability ([1]; first compound 0.8 µM) | relative viability ([1]; first compound 2.53 µM) | relative viability ([1]; first compound 8 µM) | relative viability ([2]; first compound 0.08 µM) | relative viability ([2]; first compound 0.253 µM) | relative viability ([2]; first compound 0.8 µM) | relative viability ([2]; first compound 2.53 µM) | relative viability ([2]; first compound 8 µM) | relative viability ([3]; first compound 0.01 µM) | relative viability ([3]; first compound 0.03162 µM) | relative viability ([3]; first compound 0.1 µM) | relative viability ([3]; first compound 0.3162 µM) | relative viability ([3]; first compound 1 µM) | relative viability ([4]; first compound 0.01 µM) | relative viability ([4]; first compound 0.03162 µM) | relative viability ([4]; first compound 0.1 µM) | relative viability ([4]; first compound 0.3162 µM) | relative viability ([4]; first compound 1 µM) |
| --- | --- | --- | --- | --- | --- | --- | --- | --- | --- | --- | --- | --- | --- | --- | --- | --- | --- | --- | --- | --- |
| SK-MES-1 | 0.94 | 1.02 | 1.1 | 1.06 | 1.08 | 0.449 | 0.416 | 0.378 | 0.432 | 0.369 | 0.544 | 0.776 | 0.992 | 0.707 | 0.686 | 0.319 | 0.359 | 0.392 | 0.286 | 0.335 |
| RERF-LC-KJ | 0.71 | 0.627 | 0.631 | 0.638 | 0.275 | 0.73 | 0.766 | 0.693 | 0.741 | 0.728 | 1.41 | 1.15 | 1.42 | 1.23 | 1.27 | 0.881 | 0.806 | 0.975 | 0.667 | 0.702 |
| NCI-H23 | 0.822 | 0.832 | 1 | 0.831 | 0.999 | 0.971 | 1.07 | 1.01 | 1 | 0.894 | – | 0.253 | 0.221 | 0.22 | 0.206 | 0.713 | 0.69 | 0.786 | 0.859 | 0.805 |
| HOP-62 | 0.865 | 1.01 | 1.13 | 1.11 | 1.01 | 0.94 | 1.02 | 1.2 | 1 | 0.909 | 0.75 | 0.839 | 0.949 | 0.968 | 0.855 | 0.604 | 0.632 | 0.785 | 0.634 | 0.606 |
| HARA | 1.11 | 1.16 | 1.12 | 1.12 | 1.08 | 0.483 | 0.641 | 0.509 | 0.474 | 0.527 | – | 0.609 | 0.44 | 0.682 | 0.731 | – | 0.289 | 0.283 | 0.152 | 0.258 |
| PC-14 | 0.922 | 1.01 | 0.892 | 0.933 | 0.439 | 0.295 | 0.258 | 0.338 | 0.312 | 0.292 | 0.15 | 0.222 | 0.246 | 0.151 | 0.196 | 0.266 | 0.241 | 0.28 | 0.181 | 0.217 |
| NCI-H1792 | 0.513 | 0.469 | 0.537 | 0.515 | 0.657 | 0.885 | 0.659 | 0.772 | 0.722 | 0.866 | 0.341 | 0.206 | 0.41 | 0.397 | 0.402 | 0.757 | 0.342 | 0.83 | 0.718 | 1.32 |
| NCI-H322M | 1.19 | 1.12 | 1.19 | 1.29 | 1.12 | 0.538 | 0.518 | 0.519 | 0.572 | 0.662 | 0.875 | 0.924 | 0.878 | 0.876 | 0.812 | 0.259 | 0.286 | 0.236 | 0.236 | 0.253 |
